Reference: the NIST ThermoML archive (doi:10.1021/je800197t)
± gives the expanded uncertainty stated by the source.

Conditions: Liquid

## CN1CCOCC1 [N-methylmorpholine]
293.15 K
  mass density: 918.74 ± 1.4 kg/m3
  viscosity: 1.028 ± 0.1 mPa·s
303.15 K
  mass density: 909.54 ± 1.5 kg/m3
  viscosity: 0.959 ± 0.096 mPa·s
313.15 K
  mass density: 902.37 ± 1.5 kg/m3
  viscosity: 0.858 ± 0.087 mPa·s
323.15 K
  mass density: 893.32 ± 1.5 kg/m3
  viscosity: 0.754 ± 0.078 mPa·s
333.15 K
  mass density: 884.36 ± 1.6 kg/m3
  viscosity: 0.626 ± 0.067 mPa·s
343.15 K
  mass density: 876.52 ± 1.6 kg/m3
  viscosity: 0.498 ± 0.056 mPa·s
